The source of these data is PMC6950293, “A Rapid Extraction Method Combined with a Monoclonal Antibody-Based Immunoassay for the Detection of Amatoxins” (Toxins, 2019).

One data set has as its system mAb AMA9G3. Description: indirect competitive ELISA (cELISA) with mAb AMA9G3. The class given is binding, mouse. The note with it: for working range of detection (estimated as IC30 to IC80): AMA9G3.
Another data set has as its system mAb AMA9C12. Description: indirect competitive ELISA (cELISA) with mAb AMA9C12. The class given is binding, mouse. For orientation: ELISA stands for enzyme-linked immunosorbent assay.
Data set [1] relates to polyclonal antibody (pAb). The note with it: Bühlmann Assay ref 15; cited from earlier work.
The test system of a further data set is mAb. The settings on record: another mAb, different coupling strategy ref 16; cited from earlier work.
For data set [2], the system named is single chain variable fragment of a mAb. The note with it: single chain variable fragment of a mAb ref 24; cited from earlier work.
For a further data set, the system named is mice. The note with it: mice ref 6; cited from earlier work.
A further data set deals with humans. The note with it: humans ref 7; cited from earlier work.
Setting [3] is: mAb AMA9G3, coating antigen PERI-AMA-BSA, triplicate.
Setting [4] is: mAb AMA9G3, (IC50 α-AMA)/(IC50 test inhibitor) × 100.
Setting [5] is: mAb AMA9C12, coating antigen PERI-AMA-BSA, triplicate.
The mark [6] stands for this setting: mAb AMA9C12, (IC50 α-AMA)/(IC50 test inhibitor) × 100.

SMILES strings stand for the structures. ≈ marks a conversion by molar mass, not a printed value. Read-outs that look alike come from different tables or passages of the source. *1 amine or outer side, *2 acyl side, *3 side chain or, on linkers, in order; H or OH if unused. Where a SMILES comes first, the peptide text is derived from it. Bridges are numbered along the chain shown (N, C = ends). [ ]: non-standard residue; d: D form. ξ: configuration not given here. Adda = CO[C@@H](Cc1ccccc1)[C@@H](C)/C=C(C)/C=C/[C@H](N[*:1])[C@H](C)C(=O)[*:2]; Trp(2-yl) = O=C([C@H](Cc1c([*:3])[nH]c2ccccc12)N[*:1])[*:2]; dAsp(3S-Me) = C[C@H](C(=O)[*:3])[C@@H](N[*:1])C(=O)[*:2]; ξTrp(2-yl) = O=C(C(Cc1c([*:3])[nH]c2ccccc12)N[*:1])[*:2]; Leu(4R-OH,5-OH) = C[C@](O)(CO)C[C@H](N)C(=O)O; d(γGlu) = O=C(O)[C@@H](CCC(=O)[*:2])N[*:1]; X1 = CC(O)(CO)CC(N[*:1])C(=O)[*:2]; cisHyp = O=C(O)[C@@H]1C[C@H](O)CN1; ξAsp(3ξ-OH) = NC(C(=O)O)C(O)C(=O)O; Hyp = O=C(O)[CH]1C[CH](O)CN1; NMeDha = C=C(NC)C(=O)O

The IC50 is the concentration that inhibits the measured activity by half. Take `N[C@H](C(=O)O)c1cc(=O)[nH]o1` [ibotenic acid]: the 50% inhibitory concentration (IC50) in the data set on mAb AMA9G3 (setting [3]) and in the data set with mAb AMA9C12 (setting [5]) was greater than 1 µg/mL in each case. Also, the “Cross Reactivity (%)” value with mAb AMA9G3 (setting [4]) and in the data set with mAb AMA9C12 (setting [6]) was less than 0.3% in each case.
Turning to `C=C1C(=O)N[C@H](C)C(=O)N[C@@H](CC(C)C)C(=O)N[C@@H](C(=O)O)[C@H](C)C(=O)N[C@@H](CCCNC(=N)N)C(=O)N[C@@H](/C=C/C(C)=C/[C@H](C)[C@H](Cc2ccccc2)OC)[C@H](C)C(=O)N[C@@H](C(=O)O)CCC(=O)N1C` [microcystin-LR] (R[Adda][d(γGlu)][NMeDha][dA]L[dAsp(3S-Me)]-OH; lactam N-7), the “Cross Reactivity (%)” value with mAb AMA9G3 and in the data set with mAb AMA9C12 was less than 0.3% throughout. Further, the IC50 in the data set with mAb AMA9G3 and with mAb AMA9C12 was greater than 1 µg/mL each time.
Regarding `NCc1cc(=O)[nH]o1` [muscimol], the concentration for half-maximal inhibition (IC50) with mAb AMA9G3 (setting [3]) and in the data set on mAb AMA9C12 (setting [5]) was greater than 1 µg/mL in each case. For the same compound, the “Cross Reactivity (%)” value in the data set with mAb AMA9G3 (setting [4]) and in the data set with mAb AMA9C12 (setting [6]) was less than 0.3% each time.
For `C/C=C1/C(=O)N[C@@H](C(=O)O)[C@H](C)C(=O)N[C@@H](CCCNC(=N)N)C(=O)N[C@@H](/C=C/C(C)=C/[C@H](C)[C@H](Cc2ccccc2)OC)[C@H](C)C(=O)N[C@@H](C(=O)O)CCC(=O)N1C` [nodularin], in the data set on mAb AMA9G3, the “Cross Reactivity (%)” value is recorded as less than 0.3% and the IC50 is greater than 1 µg/mL. Moreover, in the data set with mAb AMA9C12, the “Cross Reactivity (%)” value is less than 0.3% and the concentration for half-maximal inhibition (IC50) is greater than 1 µg/mL.
`CC1NC(=O)C2CC(O)CN2C(=O)C2CSc3[nH]c4ccccc4c3CC(NC1=O)C(=O)NC(CC(C)(O)CO)C(=O)NC(C(C)C)C(=O)NC(C(O)C(=O)O)C(=O)N2` (stereo not drawn) [phallacidin] (cyclo([ξAsp(3ξ-OH)]C[Hyp]A[ξTrp(2-yl)][X1]V); thioether 2-5; configuration not given here): the IC50 in the data set with mAb AMA9G3 (setting [3]) and with mAb AMA9C12 (setting [5]) was greater than 1 µg/mL each time. The “Cross Reactivity (%)” value with mAb AMA9G3 (setting [4]) is reported as less than 0.3%; in the data set on mAb AMA9C12 (setting [6]), less than 0.3%; in data set [1] it was “Not detected”.
For the compound `C[C@@H]1NC(=O)[C@H](C[C@@](C)(O)CO)NC(=O)[C@@H]2Cc3c([nH]c4ccccc34)SC[C@H](NC(=O)[C@@H]([C@H](C)O)NC1=O)C(=O)N1C[C@@H](O)C[C@H]1C(=O)N[C@@H](C)C(=O)N2` [phalloidin] (cyclo(A[dT]C[cisHyp]A[Trp(2-yl)][Leu(4R-OH,5-OH)]); thioether 3-6), the IC50 with mAb AMA9G3 (setting [3]) and in the data set with mAb AMA9C12 (setting [5]) was greater than 1 µg/mL each time. The “Cross Reactivity (%)” value in the data set on mAb AMA9G3 (setting [4]) is on record as less than 0.3%; in the data set on mAb AMA9C12 (setting [6]), less than 0.3%; in data set [1], “Not detected”.
In the case of `CN(C)CCc1c[nH]c2cccc(OP(=O)(O)O)c12` [psilocybin], the IC50 in the data set with mAb AMA9G3 (setting [3]) and with mAb AMA9C12 (setting [5]) was greater than 1 µg/mL each time. Further, the “Cross Reactivity (%)” value in the data set on mAb AMA9G3 (setting [4]) and with mAb AMA9C12 (setting [6]) was less than 0.3% throughout.
Broadly, the LD50 is the dose expected to kill half of the subjects tested. `CC[C@H](C)[C@@H]1NC(=O)CNC(=O)[C@@H]2Cc3c([nH]c4cc(O)ccc34)[S@+]([O-])C[C@H](NC(=O)CNC1=O)C(=O)N[C@@H](CC(N)=O)C(=O)N1C[C@H](O)C[C@H]1C(=O)N[C@@H]([C@@H](C)[C@@H](O)CO)C(=O)N2` [α-amanitin]: in the data set on mAb AMA9G3, the “working range of detection (estimated as IC30 to IC80)” value was 0.0007 to 0.0031 µg/mL. For the same compound, the “competitive inhibition / binding (in words)” value in the data set with mAb AMA9G3 (mAb AMA9G3) and with mAb AMA9C12 (mAb AMA9C12) was “competitively inhibited” in each case. Also, the half-inhibitory concentration (IC50) in the data set on mAb AMA9G3 (setting [3]) is 0.00157 ± 7e-05 µg/mL (≈ 0.00171 µM); with mAb AMA9G3 (mAb AMA9G3, coating antigen PERI-AMA-BSA, triplicate, listed as α-AMA) it was “≈ 1.6 ng mL^−1”; in the data set with mAb AMA9C12 (setting [5]), 0.00266 ± 0.00018 µg/mL (≈ 0.00289 µM); in the data set with mAb, 0.066 µg/mL (≈ 0.0718 µM); in data set [2], 0.077 µg/mL (≈ 0.0838 µM). For the same compound, the “Cross Reactivity (%)” value (in the data set with mAb AMA9G3 (setting [4]); in the data set with mAb AMA9C12 (setting [6]); in data set [1]) was 100% throughout. The LD50 with mice is 0.1 mg/kg. The dose severely toxic with humans was 0.3 mg/kg.
For `CC[C@H](C)[C@@H]1NC(=O)CNC(=O)[C@@H]2Cc3c([nH]c4cc(O)ccc34)[S+]([O-])C[C@H](NC(=O)CNC1=O)C(=O)N[C@@H](CC(=O)O)C(=O)N1CC(O)C[C@H]1C(=O)N[C@@H]([C@@H](C)[C@@H](O)CO)C(=O)N2` (stereo partly drawn) [β-amanitin], the “working range of detection (estimated as IC30 to IC80)” value in the data set with mAb AMA9G3 is 0.0036 to 0.1291 µg/mL. For the same compound, the “competitive inhibition / binding (in words)” value was “competitively inhibited” with mAb AMA9G3 (mAb AMA9G3) and “no reduction in signal response” in the data set on mAb AMA9C12 (mAb AMA9C12). Moreover, the IC50 was 0.0242 ± 0.0062 µg/mL (≈ 0.0263 µM) in the data set on mAb AMA9G3 (setting [3]); 0.024 µg/mL (≈ 0.0261 µM) in the data set with mAb AMA9G3 (mAb AMA9G3, coating antigen PERI-AMA-BSA, triplicate, listed as β-AMA); greater than 1 µg/mL in the data set on mAb AMA9C12 (setting [5]); 0.097 µg/mL (≈ 0.105 µM) with mAb; 0.115 µg/mL (≈ 0.125 µM) in data set [2]. The “Cross Reactivity (%)” value is recorded as 6.5% in the data set with mAb AMA9G3 (setting [4]), less than 0.3% with mAb AMA9C12 (setting [6]) and 0.1% in data set [1].
